What is called MIC is the lowest concentration that inhibits growth of the organism.

The results in this text go back to ChEMBL document CHEMBL3046430, “Synthesis of some new 3,5-diamino-4-(4-fluorophenylazo)-1-aryl/heteroarylpyrazoles as antimicrobial agents” (2013).

≈ marks a conversion by molar mass, not a printed value. Calls of active or inactive are those of the source. The rule behind the calls is not given here.

Holding throughout (format): functional
For test [1], the system named is Saccharomyces cerevisiae. Put plainly: Antifungal activity against Saccharomyces cerevisiae after 7 days by agar well diffusion method. For orientation: A growth-free zone around the sample is the usual read-out of agar diffusion tests.
Test [2] has as its system Aspergillus niger. Briefly: Antifungal activity against Aspergillus niger after 7 days by agar well diffusion method.
In test [3] the test system is Candida albicans. Put plainly: Antifungal activity against Candida albicans after 7 days by agar well diffusion method.
The subject of test [4] is Escherichia coli. Briefly: Antibacterial activity against Escherichia coli after 24 hr by agar well diffusion method.
In test [5] the test system is Klebsiella aerogenes. Briefly: Antibacterial activity against Enterobacter aerogenes after 24 hr by agar well diffusion method.
For test [6], the system named is Bacillus subtilis. Put plainly: Antibacterial activity against Bacillus subtilis after 24 hr by agar well diffusion method.
Test [7] relates to Staphylococcus aureus. Put plainly: Antibacterial activity against Staphylococcus aureus after 24 hr by agar well diffusion method.
Test [8] concerns Saccharomyces cerevisiae. Briefly: Antifungal activity against Saccharomyces cerevisiae at 2 to 64 ug/ml after 7 days by agar well diffusion method.
Test [9] has as its system Aspergillus niger. Put plainly: Antifungal activity against Aspergillus niger at 2 to 64 ug/ml after 7 days by agar well diffusion method.
Test [10] has as its system Candida albicans. Put plainly: Antifungal activity against Candida albicans at 2 to 64 ug/ml after 7 days by agar well diffusion method.
Test [11] has as its system Escherichia coli. Briefly: Antibacterial activity against Escherichia coli at 2 to 64 ug/ml after 24 hr by agar well diffusion method.
Test [12] relates to Klebsiella aerogenes. Briefly: Antibacterial activity against Enterobacter aerogenes at 2 to 64 ug/ml after 24 hr by agar well diffusion method.
In test [13] the test system is Bacillus subtilis. Put plainly: Antibacterial activity against Bacillus subtilis at 2 to 64 ug/ml after 24 hr by agar well diffusion method.
Test [14] has as its system Staphylococcus aureus. Put plainly: Antibacterial activity against Staphylococcus aureus at 2 to 64 ug/ml after 24 hr by agar well diffusion method.

On to `C=CC1=C(C(=O)O)N2C(=O)[C@@H](NC(=O)/C(=N\OCC(=O)O)c3csc(N)n3)[C@H]2SC1` [CEFIXIME], for which the MIC entry in the test on Saccharomyces cerevisiae [1], in the test with Aspergillus niger [2] and in the test on Candida albicans [3] was “inactive” each time. The minimum inhibitory concentration (MIC) against Escherichia coli [4] worked out at 2 µg/mL (≈ 4.41 µM); in the test with Klebsiella aerogenes [5], 2 µg/mL (≈ 4.41 µM); with Bacillus subtilis [6] it was 4 µg/mL (≈ 8.82 µM); with Staphylococcus aureus [7], 2 µg/mL (≈ 4.41 µM). The result with Saccharomyces cerevisiae [8], in the test with Aspergillus niger [9] and in the test on Candida albicans [10] was inactive. The “diameter of the inhibition zone (DIZ)” value is on record as 14 mm in the test on Escherichia coli [11], 15 mm in the test on Klebsiella aerogenes [12], 2.8 mm with Bacillus subtilis [13] and 2.9 mm with Staphylococcus aureus [14].
Consider `Nc1nn(-c2ccc([N+](=O)[O-])cc2[N+](=O)[O-])c(N)c1/N=N/c1ccc(F)cc1`, for which the MIC was 8 µg/mL (≈ 20.7 µM) in the test with Saccharomyces cerevisiae [1] (168 h); 2 µg/mL (≈ 5.18 µM) with Aspergillus niger [2] (168 h); 2 µg/mL (≈ 5.18 µM) against Candida albicans [3] (168 h); 2 µg/mL (≈ 5.18 µM) against Escherichia coli [4]; 2 µg/mL (≈ 5.18 µM) against Klebsiella aerogenes [5]; 4 µg/mL (≈ 10.4 µM) against Bacillus subtilis [6]. Besides, in the test on Staphylococcus aureus [7], the MIC entry is “inactive”. The “diameter of the inhibition zone (DIZ)” value in the test with Saccharomyces cerevisiae [8] turned out to be 12 mm; in the test on Aspergillus niger [9], 10 mm; with Candida albicans [10], 11 mm; with Escherichia coli [11], 13 mm; in the test with Klebsiella aerogenes [12], 13 mm; in the test with Bacillus subtilis [13], 10 mm. Moreover, the outcome in the test with Staphylococcus aureus [14] was inactive.
As for `Nc1nn(-c2ccccc2)c(N)c1/N=N/c1ccc(F)cc1`, the MIC against Saccharomyces cerevisiae [1] (168 h) was 4 µg/mL (≈ 13.5 µM); against Candida albicans [3] (168 h) it was 2 µg/mL (≈ 6.75 µM); with Escherichia coli [4], 2 µg/mL (≈ 6.75 µM); with Klebsiella aerogenes [5], 32 µg/mL (≈ 108 µM); with Bacillus subtilis [6], 8 µg/mL (≈ 27 µM). The MIC entry with Aspergillus niger [2] and in the test with Staphylococcus aureus [7] was “inactive” throughout. The “diameter of the inhibition zone (DIZ)” value was 12 mm with Saccharomyces cerevisiae [8]; 7 mm in the test with Candida albicans [10]; 12 mm in the test on Escherichia coli [11]; 12 mm in the test on Klebsiella aerogenes [12]; 10 mm in the test with Bacillus subtilis [13]. The outcome in the test on Aspergillus niger [9] and in the test on Staphylococcus aureus [14] was inactive.
Regarding `Nc1nn(-c2nc3ccccc3s2)c(N)c1/N=N/c1ccc(F)cc1`, the MIC was 6 µg/mL (≈ 17 µM) with Saccharomyces cerevisiae [1] (168 h); 2 µg/mL (≈ 5.66 µM) against Candida albicans [3] (168 h); 8 µg/mL (≈ 22.6 µM) with Escherichia coli [4]; 2 µg/mL (≈ 5.66 µM) against Klebsiella aerogenes [5]; 6 µg/mL (≈ 17 µM) against Bacillus subtilis [6]. For the same compound, the MIC result in the test with Aspergillus niger [2] and in the test on Staphylococcus aureus [7] was “inactive” throughout. Also, the “diameter of the inhibition zone (DIZ)” value with Saccharomyces cerevisiae [8] came out at 9 mm; with Candida albicans [10], 12 mm; with Escherichia coli [11], 12 mm; in the test on Klebsiella aerogenes [12], 14 mm; in the test on Bacillus subtilis [13], 9 mm. Also, the outcome in the test with Aspergillus niger [9] and in the test on Staphylococcus aureus [14] was inactive.
As to `Cc1cc(C)nc(-n2nc(N)c(/N=N/c3ccc(F)cc3)c2N)n1`, the MIC against Saccharomyces cerevisiae [1] (168 h) amounted to 8 µg/mL (≈ 24.5 µM); with Candida albicans [3] (168 h), 2 µg/mL (≈ 6.13 µM); in the test on Klebsiella aerogenes [5], 8 µg/mL (≈ 24.5 µM); against Staphylococcus aureus [7] it was 16 µg/mL (≈ 49 µM). Also, the MIC entry with Aspergillus niger [2], with Escherichia coli [4] and in the test on Bacillus subtilis [6] was “inactive” each time. Further, the “diameter of the inhibition zone (DIZ)” value in the test with Saccharomyces cerevisiae [8] worked out at 10 mm; in the test with Candida albicans [10] it was 9 mm; in the test on Klebsiella aerogenes [12] it was 9 mm; in the test on Staphylococcus aureus [14], 4.5 mm. The outcome in the test with Aspergillus niger [9], with Escherichia coli [11] and in the test on Bacillus subtilis [13] was inactive.
Turning to `Cc1ccc2nc(-n3nc(N)c(/N=N/c4ccc(F)cc4)c3N)sc2c1`, the MIC result with Saccharomyces cerevisiae [1], in the test on Aspergillus niger [2], in the test with Escherichia coli [4], with Bacillus subtilis [6] and in the test on Staphylococcus aureus [7] was “inactive” each time. Moreover, the minimal inhibitory concentration (MIC) with Candida albicans [3] (168 h) and with Klebsiella aerogenes [5] was 2 µg/mL (≈ 5.44 µM) throughout. Further, the outcome with Saccharomyces cerevisiae [8], in the test with Aspergillus niger [9], in the test on Escherichia coli [11], in the test with Bacillus subtilis [13] and with Staphylococcus aureus [14] was inactive. The “diameter of the inhibition zone (DIZ)” value with Candida albicans [10] was determined as 11 mm; with Klebsiella aerogenes [12], 10.5 mm.
Regarding `Nc1nn(-c2ccc(Cl)cc2)c(N)c1/N=N/c1ccc(F)cc1`, the MIC entry in the test with Saccharomyces cerevisiae [1], in the test on Aspergillus niger [2], with Escherichia coli [4], with Bacillus subtilis [6] and with Staphylococcus aureus [7] was “inactive” in each case. In addition, the MIC against Candida albicans [3] (168 h) and with Klebsiella aerogenes [5] was 2 µg/mL (≈ 6.05 µM) in each case. Moreover, the outcome with Saccharomyces cerevisiae [8], in the test with Aspergillus niger [9], with Escherichia coli [11], with Bacillus subtilis [13] and in the test on Staphylococcus aureus [14] was inactive. For the same compound, the “diameter of the inhibition zone (DIZ)” value in the test with Candida albicans [10] is 9 mm; in the test with Klebsiella aerogenes [12], 12 mm.
With `Cc1cc(-n2nc(N)c(/N=N/c3ccc(F)cc3)c2N)nc2ccccc12`, the MIC entry with Saccharomyces cerevisiae [1] and in the test on Aspergillus niger [2] was “inactive” in each case. Besides, the minimum inhibitory concentration (MIC) against Candida albicans [3] (168 h) stood at 64 µg/mL (≈ 177 µM); in the test with Escherichia coli [4] it was 2 µg/mL (≈ 5.53 µM); against Klebsiella aerogenes [5], 8 µg/mL (≈ 22.1 µM); in the test with Bacillus subtilis [6] it was 4 µg/mL (≈ 11.1 µM); with Staphylococcus aureus [7], 2 µg/mL (≈ 5.53 µM). Moreover, the result with Saccharomyces cerevisiae [8] and in the test on Aspergillus niger [9] was inactive. Further, the “diameter of the inhibition zone (DIZ)” value worked out at 10 mm in the test with Candida albicans [10]; 15 mm in the test with Escherichia coli [11]; 15 mm with Klebsiella aerogenes [12]; 12 mm with Bacillus subtilis [13]; 2.6 mm in the test with Staphylococcus aureus [14].
As to `OC(Cn1cncn1)(Cn1cncn1)c1ccc(F)cc1F` [FLUCONAZOLE], the MIC is 4 µg/mL (≈ 13.1 µM) with Saccharomyces cerevisiae [1] (168 h), 2 µg/mL (≈ 6.53 µM) in the test with Aspergillus niger [2] (168 h) and 2 µg/mL (≈ 6.53 µM) in the test with Candida albicans [3] (168 h). In addition, the MIC entry with Escherichia coli [4], in the test on Klebsiella aerogenes [5], with Bacillus subtilis [6] and with Staphylococcus aureus [7] was “inactive” in each case. Besides, the figures for the “diameter of the inhibition zone (DIZ)” value in the test with Saccharomyces cerevisiae [8], with Aspergillus niger [9] and in the test on Candida albicans [10] were 12 mm, 13 mm and 10 mm, respectively. In addition, the result in the test on Escherichia coli [11], in the test with Klebsiella aerogenes [12], in the test on Bacillus subtilis [13] and in the test on Staphylococcus aureus [14] was inactive.
In the case of `Nc1nn(-c2nc3ccc(Cl)cc3s2)c(N)c1/N=N/c1ccc(F)cc1`, the MIC entry with Saccharomyces cerevisiae [1], in the test with Aspergillus niger [2], with Escherichia coli [4], with Bacillus subtilis [6] and with Staphylococcus aureus [7] was “inactive” each time. The MIC in the test with Candida albicans [3] (168 h) and in the test on Klebsiella aerogenes [5] was 2 µg/mL (≈ 5.16 µM) in each case. Besides, the outcome in the test with Saccharomyces cerevisiae [8], in the test on Aspergillus niger [9], in the test with Escherichia coli [11], in the test on Bacillus subtilis [13] and in the test on Staphylococcus aureus [14] was inactive. Also, the “diameter of the inhibition zone (DIZ)” value with Candida albicans [10] amounted to 12 mm; with Klebsiella aerogenes [12], 10 mm.
For the compound `Nc1nn(-c2nc3ccc(F)cc3s2)c(N)c1/N=N/c1ccc(F)cc1`, the MIC entry in the test on Saccharomyces cerevisiae [1], in the test with Candida albicans [3], in the test on Escherichia coli [4] and in the test on Staphylococcus aureus [7] was “inactive” each time. In addition, the minimal inhibitory concentration (MIC) in the test on Aspergillus niger [2] (168 h) came to 2 µg/mL (≈ 5.39 µM); with Klebsiella aerogenes [5] it was 4 µg/mL (≈ 10.8 µM); with Bacillus subtilis [6] it was 4 µg/mL (≈ 10.8 µM). Further, the result in the test with Saccharomyces cerevisiae [8], with Candida albicans [10], with Escherichia coli [11] and in the test on Staphylococcus aureus [14] was inactive. Further, the figures for the “diameter of the inhibition zone (DIZ)” value in the test with Aspergillus niger [9], in the test with Klebsiella aerogenes [12] and in the test on Bacillus subtilis [13] were 14 mm, 11 mm and 12 mm, respectively.
